Data taken from patent US5814646A, “Inhibitors of amyloid beta-protein production” (Eli Lilly and Company, priority 1995, dated 1998).

Test system: Aβ production in 293 751 SWE and CHO 751 SWE cells (transfected with APP-751 Swedish mutation)
Assay: Aβ production inhibition activity in cells (Aβ ELISA of conditioned media, normalized for cytotoxicity by MTT)
Type: cell-based
Conditions: 10 μg/ml, % of drug-free control, normalized to MTT
Method: Two cell lines (human kidney cell line 293 and Chinese hamster ovary cell line CHO) were stably transfected with the gene for APP-751 containing the double mutation Lys651 -Met652 to Asn651 -Leu652 (APP-751 numbering) commonly called the Swedish mutation using the method described in Citron et al., (1992) Nature 360:672-674. The transfected cell lines were designated as 293 751 SWE and CHO 751 SWE, and were plated in Corning 96 well plates at 2.5×10^4 or 1×10^4 cells per well respectively in Dulbecco's minimal essential media plus 10% fetal bovine serum. Following overnight incubation at 37° C. in an incubator equilibrated with 10% carbon dioxide (CO2), the media were removed and replaced with 200 μL per well of media containing a test compound. After a two hour pretreatment period, the media were again removed and replaced with fresh media containing the test compound and the cells were incubated for an additional two hours.
Test compound stocks were prepared in DMSO such that at the final concentration used in the treatment, the concentration of DMSO did no exceed 0.5%. After treatment, plates were centrifuged in a Beckman GPR at 1200 rpm for five minutes at room temperature to pellet cellular debris from the conditioned media. From each well, 100 μL of conditioned media were transferred into an ELISA plate precoated with antibody 266 against βAP-13-28 (Seubert et al., supra.) and stored at 4° C. overnight. An ELISA assay employing labeled antibody 6C6 (against βAP-1-16) was run the next day to measure the amount of Aβ produced.
Cytotoxic effects of the test compounds were measured by a modification of the method of Hansen et al., (1989) J. Immun. Meth. 119:203-210. To the cells remaining in the tissue culture plate, was added 25 μL of a 3, (4,5-dimethylthiazol-2-yl)2,5-diphenyltetrazolium bromide (MTT) stock solution (5 mg/mL) to a final concentration of […]. Cells were incubated at 37° C. for one hour, and cellular activity was stopped by the addition of an equal volume of MTT lysis buffer (20% w/v sodium dodecylsulfate in 50% DMF, pH 4.7). Complete extraction was achieved by overnight shaking at room temperature. The difference in the OD562 nm and the OD650 nm was measured in a Molecular Devices UVmax microplate reader as an indicator of the cellular viability.
The results of the Aβ ELISA were fit to a standard curve and expressed as ng/mL Aβ peptide. In order to normalize for cytotoxicity, these Aβ results were divided by the MTT results and expressed as a percentage of the results from a drug -free control.
The test compounds were assayed for Aβ production inhibition activity in cells at […] using the test. The results presented in Table 1 are the mean and standard deviation of at least six replicate assays. IC50 means the concentration of test compound in micromoles/liter required to inhibit Aβ production by 50%.

Point of comparison: `CC(c1cccc(Oc2ccc(C(C)(C)C)cc2)c1)N(O)C(=S)NCc1ccc2c(c1)OCO2` (stereo not shown) [Compound 15], inhibition at 10 µg/mL 28%. Against it:
- CC(c1cccc(Oc2ccc(C(C)(C)C)cc2)c1)N(O)C(=S)NCc1ccc(Cl)c(Cl)c1 (stereo not shown) [Compound 2] — higher, 77%
- Cc1ccc(CNC(=S)N(O)C(C)c2cccc(Oc3ccc(C(C)(C)C)cc3)c2)cc1C (stereo not shown) [Compound 9] — higher, 62%
- COc1ccc(CNC(=S)N(O)C(C)c2cccc(Oc3ccc(C(C)(C)C)cc3)c2)cc1OC (stereo not shown) [Compound 11] — higher, 31%
- CC(NC(=S)N(O)C(C)c1cccc(Oc2ccc(C(C)(C)C)cc2)c1)c1ccccc1 (stereo not shown) [Compound 13] — higher, 46%
- CC(c1cccc(Oc2ccc(C(C)(C)C)cc2)c1)N(O)C(=S)NC(c1ccccc1)c1ccccc1 (stereo not shown) [Compound 14] — higher, 44%
- CCC(c1cccc(Oc2ccc(C(C)(C)C)cc2)c1)N(O)C(=S)Nc1cccc(C(F)(F)F)c1Cl (stereo not shown) [Compound 22] — lower, 10%

Same assay, conditions: 2 h pretreatment + 2 h incubation

Point of comparison: `CCCCCCNC(=S)N(O)C(C)c1cccc(Oc2ccc(C(C)(C)C)cc2)c1` (stereo not shown) [Compound 19], IC50 11 µM. Against it:
- CC(c1cccc(Oc2ccc(C(C)(C)C)cc2)c1)N(O)C(=S)NCc1ccccc1 (stereo not shown) [Compound 1] — within 1.5-fold, 11.2 µM
- CC(c1cccc(Oc2ccc(C(C)(C)C)cc2)c1)N(O)C(=S)NCc1ccc(Cl)cc1 (stereo not shown) [Compound 3] — within 1.5-fold, 11.7 µM
- CC(c1cccc(Oc2ccc(C(C)(C)C)cc2)c1)N(O)C(=S)NCc1ccc(F)cc1 (stereo not shown) [Compound 4] — within 1.5-fold, 11.1 µM
- Cc1ccccc1CNC(=S)N(O)C(C)c1cccc(Oc2ccc(C(C)(C)C)cc2)c1 (stereo not shown) [Compound 5] — within 1.5-fold, 10.3 µM
- Cc1cccc(CNC(=S)N(O)C(C)c2cccc(Oc3ccc(C(C)(C)C)cc3)c2)c1 (stereo not shown) [Compound 6] — within 1.5-fold, 11.1 µM
- Cc1ccc(CNC(=S)N(O)C(C)c2cccc(Oc3ccc(C(C)(C)C)cc3)c2)cc1 (stereo not shown) [Compound 7] — within 1.5-fold, 15.6 µM
- Cc1ccc(CNC(=S)N(O)C(C)c2cccc(Oc3ccc(C(C)(C)C)cc3)c2)cc1Cl (stereo not shown) [Compound 8] — within 1.5-fold, 9 µM
- COc1ccc(CNC(=S)N(O)C(C)c2cccc(Oc3ccc(C(C)(C)C)cc3)c2)cc1 (stereo not shown) [Compound 10] — higher, > 20 µM
- CC(c1cccc(Oc2ccc(C(C)(C)C)cc2)c1)N(O)C(=S)Nc1cccc2ccccc12 (stereo not shown) [Compound 12] — higher, > 20 µM
- CC(c1cccc(Oc2ccc(C(C)(C)C)cc2)c1)N(O)C(=S)NCc1cccc(Cl)c1 (stereo not shown) [Compound 16] — within 1.5-fold, 12 µM
- CC(c1cccc(Oc2ccc(C(C)(C)C)cc2)c1)N(O)C(=S)NCc1ccc(Cl)cc1Cl (stereo not shown) [Compound 17] — 1.9-fold lower, 5.7 µM
- CC(c1cccc(Oc2ccc(C(C)(C)C)cc2)c1)N(O)C(=S)NCc1cccc(F)c1 (stereo not shown) [Compound 18] — 1.7-fold higher, 18.3 µM
- CCC(c1cccc(Oc2ccc(C(C)(C)C)cc2)c1)N(O)C(=S)NCc1ccccc1 (stereo not shown) [Compound 20] — 3.1-fold lower, 3.6 µM
- CCC(c1cccc(Oc2ccc(C(C)(C)C)cc2)c1)N(O)C(=S)NCc1cccc(OC)c1 (stereo not shown) [Compound 21] — 2-fold lower, 5.6 µM
- CCC(c1cccc(Oc2ccc(C(C)(C)C)cc2)c1)N(O)C(=S)Nc1ccc(Cl)c(C(F)(F)F)c1 (stereo not shown) [Compound 23] — the same, 11 µM
- CCCCCCNC(=S)N(O)C(CC)c1cccc(Oc2ccc(C(C)(C)C)cc2)c1 (stereo not shown) [Compound 24] — within 1.5-fold, 8.8 µM
- CCCCOc1ccc(NC(=S)N(O)C(CC)c2cccc(Oc3ccc(C(C)(C)C)cc3)c2)cc1 (stereo not shown) [Compound 25] — within 1.5-fold, 16 µM
- CC(C)(C)c1ccc(Oc2cccc(CN(O)C(=S)NCc3ccccc3)c2)cc1 [Compound 26] — 3.2-fold lower, 3.4 µM
- CCCCCCNC(=S)N(O)Cc1cccc(Oc2ccc(C(C)(C)C)cc2)c1 [Compound 27] — within 1.5-fold, 9.4 µM
- CC(C)(C)c1ccc(Oc2cccc(CN(O)C(=S)NCc3ccc(Cl)c(Cl)c3)c2)cc1 [Compound 28] — 2.6-fold lower, 4.2 µM
- CCCC(c1cccc(Oc2ccc(C(C)(C)C)cc2)c1)N(O)C(=S)NCc1ccccc1 (stereo not shown) [Compound 29] — within 1.5-fold, 7.5 µM
- CCCC(c1cccc(Oc2ccc(C(C)(C)C)cc2)c1)N(O)C(=S)NCc1cccc(Cl)c1 (stereo not shown) [Compound 30] — within 1.5-fold, 9.1 µM
- CCCC(c1cccc(Oc2ccc(C(C)(C)C)cc2)c1)N(O)C(=S)NCc1ccc(Cl)c(Cl)c1 (stereo not shown) [Compound 31] — within 1.5-fold, 10 µM
